Results on 7 molecules are retold here after US11819476B2, “Rapamycin analogs and uses thereof” (Janssen Pharmaceutica NV, priority 2019, dated 2023).

Format in all cases: cell-based
One assay relates to pS6K1 in MCF7. Briefly: AlphaLISA Ultra pS6K1 Assay. As to conditions: Homo sapiens, 1.5 h; MCF7 cells, 90 min incubation. The method, then:
Example 74: AlphaLISA Ultra pS6K1 Assay
Assay Protocol: • 1. Seed MCF-7 cells in Corning 3701 plate and incubate for 20˜24 hour. 12,000˜16,000 cells will be seeded in 36 μL medium per well. • 2. Change the culture medium with fresh medium and incubate for another 2 hours. • 3. Add 12 μL (4×) compounds into the cell plate by HAMILTON. Final DMSO concentration is 0.5%. Incubate for 90 minutes. • 4. Aspirate 38 μL by HAMILTON, 10 μL rest per well. • 5. Add 10 μL 2× lysis buffer using HAMILTON; total volume in wells is 20 μL. Allow cells to shake for 30 min. Cover plate by plastic foil and store plate at −80° C. up to analysis. • 6. Thaw cell lysate at RT and transfer 10 μL lysate to assay plate (Optiplate-384). • 7. Add 5 μL acceptor beads into assay plate and incubation for 2 hours • 8. Add 5 μL donor beads and incubation for 2 hours • 9. Count the plate by EnSpire Multimode Plate Reader
Background: Alpha assays give light when donor and acceptor beads are brought close together.

The test system of the next assay is mTORC1 over mTORC2. Briefly: mTORC1 selectivity over mTORC2 at 24 hrs (pS6K1 and pAKT assays). As to conditions: for mTORC1 selective @ 24 hrs: selectivity for mTORC1 over mTORC2 at 24 hrs. The method, then: (§1) Example 76: Western Blot Based pS6K1 and pAKT Assay at 24 and 48 Hour Timepoints
(§2) Assay Protocol: • 1. Seed six well plate with 500,000 PC3 cells per well and incubate for […]. • 2. Add compounds into the cell plate. Incubate for 24 to 48 hours. • 4. Plate is placed on ice and the media is removed via aspiration. The wells are washed with 1 mL of 1×PBS and then fully aspirated. • 5. 110 μL of 1% Triton Lysis Buffer is added and each well is scraped vigorously. • 6. Cell homogenates are transferred to 1.5 mL eppendorf tubes on ice and spun down at 4° C. for 10 minutes at 10,000 rpm. • 7. Protein concentration of resulting cell lysates were quantified utilizing a Bradford assay and the samples run analyzed via Western blot on 4-12% Bis/Tris gels with 1×MES buffer. • 8. The gels were transferred onto membranes at 50V for 100 minutes, blocked with Odyssey Blocking buffer for 30 minutes then incubated overnight with primary antibody (pS6K1 T389 Rabbit or pAkt S473 Rabbit) overnight at 4° C. on a rotator. • 9. The membranes were washed 3× with TBS-T with a 5 minute incubation between each wash then incubated with secondary antibody (LiCor IRDye 800 Donkey Anti Rabbit) for at least 30 minutes. • 10. The membranes were washed 3× with TBS-T with a 5 minute incubation between each wash. • 11. The gels were then incubated for 5 minutes with PBS at room temperature then imaged using a Li-Cor.
The compound numbers correspond to the compound numbers in Table 1.
Compounds that are not selective at the 24 hrs mark are indicated by “NO” in the “mTORC1 selective @ 24 hrs” column of Table 4. Compounds that partially retain selectivity for mTORC1 inhibition over mTORC2 are indicated by “Partial” in the “mTORC1 selective @ 24 hrs” column of Table 4.

For assay [1], the system named is pS6K1 T389 in PC3 cells (mTORC1 pathway). The assay is described as follows: Western blot based pS6K1 assay (mTORC1 pathway). The following applies: 24 hours. The method, then:
as §1, §2
PC3 cells were treated with everolimus (0.1 μM, 0.01 μM, and 0.001 μM) or I-9 ([…], 0.1 μM, 0.01 μM, and 0.001 μM) for 24 hours.
The methods employed were substantially similar to those described above. Compounds were evaluated in PC3 cells. Additional cell lines that may be used include Jurkat cells, wild-type mouse embryotic fibroblast (MEF) cells, tuberous sclerosis 2 (TSC2) negative (TSC−/−) MEF cells, and tuberous sclerosis 2 (TSC2) positive (TSC+/+) MEF cells. Cells are incubated with compounds of the present invention for various time periods (e.g., 5 minutes, 15 minutes, 30 minutes, 90 minutes, 24 hours, or 48 hours), and evaluated according to known methodologies, such as those herein described.
For orientation: In western blotting, separated proteins are transferred to a membrane and probed.

Assay [2] concerns pAkt S473 in PC3 cells (mTORC2). The assay is described as follows: Western blot based pAKT assay (mTORC2 pathway). The following applies: 24 hours. The method, then:
as §1
as §2, with “The membranes were washed 3× with TBS-T with a 5 minute incubation between each wash then incubated with secondary antibody (LiCor IRDye 800 Donkey Anti Rabbit) for at least 30 minutes. • 10. The membranes were washed 3× with TBS-T with a 5 minute incubation between each wash. • 11. The gels were then incubated for 5 minutes with PBS at room temperature then imaged using a Li-Cor.” left out
The methods employed were substantially similar to those described above. Compounds were evaluated in PC3 cells. […] Cells are incubated with compounds of the present invention for various time periods (e.g., 5 minutes, 15 minutes, 30 minutes, 90 minutes, 24 hours, or 48 hours), and evaluated according to known methodologies, such as those herein described.

SMILES strings stand for the structures. “Also recorded” adds a separate entry of the source.

Molecule `CO[C@@H]1C[C@H](C[C@@H](C)[C@@H]2CC(=O)[C@H](C)/C=C(\C)[C@@H](O)[C@@H](OC)C(=O)[C@H](C)C[C@H](C)/C=C/C=C/C=C(\C)[C@@H](OCCOc3ccccc3)C[C@@H]3CC[C@@H](C)[C@@](O)(O3)C(=O)C(=O)N3CCCC[C@H]3C(=O)O2)CC[C@H]1OCCO` [Example I-7, (26E,28E,30E,31E,38R,39S,40R,41R,43S,45S,47S,48S,49R,50R,59R)-49,59-dihydroxy-48-[(1R)-2-[(1S,3R,4R)-4-(2-hydroxyethoxy)-3-methoxy-cyclohexyl]-1-methyl-ethyl]-50-methoxy-38,39,40,41,51,52-hexamethyl-47-(2-phenoxyethoxy)-69,70-dioxa-60-azatricyclohexatriaconta-26,28,30(51),31(52)-tetraene-53,54,55,56,57-pentone] yielded an IC50 in the assay with pS6K1 in MCF7 of 1 to 10 nM. Further, the “mTORC1 selective @ 24 hrs” value in the assay with mTORC1 over mTORC2 was “Yes”.
For the molecule `CO[C@@H]1C[C@H](C[C@@H](C)[C@@H]2CC(=O)[C@H](C)/C=C(\C)[C@@H](O)[C@@H](OC)C(=O)[C@H](C)C[C@H](C)/C=C/C=C/C=C(\C)[C@@H](OCCOC3COC3)C[C@@H]3CC[C@@H](C)[C@@](O)(O3)C(=O)C(=O)N3CCCC[C@H]3C(=O)O2)CC[C@H]1OCCO` [Example I-9, (23E,25E,27E,28E,34R,35S,36R,37R,39S,41S,43S,44S,46R,47R,56R)-46,56-dihydroxy-44-[(1R)-2-[(1S,3R,4R)-4-(2-hydroxyethoxy)-3-methoxy-cyclohexyl]-1-methyl-ethyl]-47-methoxy-34,35,36,37,48,49-hexamethyl-43-[2-(oxetan-3-yloxy)ethoxy]-67,68-dioxa-57-azatricyclohexatriaconta-23,25,27(48),28(49)-tetraene-50,51,52,53,54-pentone], the IC50 in the assay on pS6K1 in MCF7 lay within 0.1 to 1 nM. Besides, the “inhibition of the mTORC1 pathway (pS6K1, Western blot)” value (shortened to “inhibition of the mTORC1 pathway”) in assay [1] was “reduction in pS6K1; also recorded: moderate concentration dependent inhibition”. Moreover, in assay [2], the “inhibition of mTORC2 (Akt phosphorylation, pAkt, Western blot)” value is “did not reduce”. Also, in the assay on mTORC1 over mTORC2, the “mTORC1 selective @ 24 hrs” value is on record as “Yes”.
In the case of `CO[C@@H]1C[C@H](C[C@@H](C)[C@@H]2CC(=O)[C@H](C)/C=C(\C)[C@@H](O)[C@@H](OC)C(=O)[C@H](C)C[C@H](C)/C=C/C=C/C=C(\C)C(OCCCCS(N)(=O)=O)C[C@@H]3CC[C@@H](C)[C@@](O)(O3)C(=O)C(=O)N3CCCC[C@H]3C(=O)O2)CC[C@H]1OCCO` (some centres unmarked) [Example I-19], the “selectivity over mTORC2 as measured by the impact of pAKT” value with mTORC1 over mTORC2 (at 24 hours, depends on size of C-7 group) is given as “marked selectivity”.
Regarding `CO[C@@H]1C[C@H](C[C@@H](C)[C@@H]2CC(=O)[C@H](C)/C=C(\C)[C@@H](O)[C@@H](OC)C(=O)[C@H](C)C[C@H](C)/C=C/C=C/C=C(\C)[C@@H](OCCCCCO)C[C@@H]3CC[C@@H](C)[C@@](O)(O3)C(=O)C(=O)N3CCCC[C@H]3C(=O)O2)CC[C@H]1O` [Example I-35, (21E,23E,25E,26E,33R,34S,35R,36R,38S,40S,42S,43S,44R,45R,54R)-44,54-dihydroxy-43-[(1R)-2-[(1S,3R,4R)-4-hydroxy-3-methoxy-cyclohexyl]-1-methyl-ethyl]-42-(5-hydroxypentoxy)-45-methoxy-33,34,35,36,46,47-hexamethyl-65,66-dioxa-55-azatricyclohexatriaconta-21,23,25(46),26(47)-tetraene-48,49,50,51,52-pentone], in the assay on pS6K1 in MCF7, the IC50 lay in the range of 0.1 to 1 nM. In addition, the “mTORC1 selective @ 24 hrs” value in the assay with mTORC1 over mTORC2 is “Yes”.
For `CO[C@@H]1C[C@H](C[C@@H](C)[C@@H]2CC(=O)[C@H](C)/C=C(\C)[C@@H](O)[C@@H](OC)C(=O)[C@H](C)C[C@H](C)/C=C/C=C/C=C(\C)[C@@H](OCCCO)C[C@@H]3CC[C@@H](C)[C@@](O)(O3)C(=O)C(=O)N3CCCC[C@H]3C(=O)O2)CC[C@H]1O` [Example I-36, (21E,23E,25E,26E,31R,32S,33R,34R,36S,38S,40S,41S,42S,43R,52R)-42,52-dihydroxy-41-[(1R)-2-[(1S,3R,4R)-4-hydroxy-3-methoxy-cyclohexyl]-1-methyl-ethyl]-40-(3-hydroxypropoxy)-43-methoxy-31,32,33,34,44,45-hexamethyl-63,64-dioxa-53-azatricyclohexatriaconta-21,23,25(44),26(45)-tetraene-46,47,48,49,50-pentone] the same measures were 0.1 to 1 nM and “Yes”.
`CO[C@@H]1C[C@H](C[C@@H](C)[C@@H]2CC(=O)[C@H](C)/C=C(\C)[C@@H](O)[C@@H](OC)C(=O)[C@H](C)C[C@H](C)/C=C/C=C/C=C(\C)[C@@H](OCCS(=O)(=O)CCS(=O)(=O)CCO)C[C@@H]3CC[C@@H](C)[C@@](O)(O3)C(=O)C(=O)N3CCCC[C@H]3C(=O)O2)CC[C@H]1O` [Example I-65, (21E,23E,25E,26E,34R,35S,36R,37R,39S,41S,43S,44S,45R,46R,55R)-45,55-dihydroxy-43-[2-[2-(2-hydroxyethylsulfonyl)ethylsulfonyl]ethoxy]-44-[(1R)-2-[(1S,3R,4R)-4-hydroxy-3-methoxy-cyclohexyl]-1-methyl-ethyl]-46-methoxy-34,35,36,37,47,48-hexamethyl-70,71-dioxa-56-azatricyclohexatriaconta-21,23,25(47),26(48)-tetraene-49,50,51,52,53-pentone]: the “inhibition of the mTORC1 pathway” value in assay [1] was “strong inhibition”.
Take `CO[C@H]1C[C@@H]2CC[C@@H](C)[C@@](O)(O2)C(=O)C(=O)N2CCCC[C@H]2C(=O)O[C@H]([C@H](C)C[C@@H]2CC[C@@H](OCCO)[C@H](OC)C2)CC(=O)[C@H](C)/C=C(\C)[C@@H](O)[C@@H](OC)C(=O)[C@H](C)C[C@H](C)/C=C/C=C/C=C/1C` [everolimus, reference compound]: the “inhibition of the mTORC1 pathway” value in assay [1] was “reduction in pS6K1; also recorded: strong inhibition”. The “inhibition of mTORC2 (Akt phosphorylation, pAkt, Western blot)” value in assay [2] is “inhibition of S6K1 phosphorylation (S^473)”.

Broadly, the IC50 is the midpoint of a concentration-inhibition curve. A high value points to a need for much substance.
